Measured values taken from patent US4064252A, “Substituted N-(carboxymethyl)-3-aminopropan-2-ol derivatives” (Nippon Shinyaku Co., Ltd., priority 1975, dated 1977).
Like-named read-outs stand apart in the source and are kept apart here.

Assays:
serum triglyceride = test: Blood lipid lowering in 8 week-old male rats having normal serum lipid content: serum triglyceride; assay type: in vivo, rat; conditions: 3.5 days, vs non-treated control; for inhibition in vivo at 100 mg/kg/day / inhibition in vivo at 10 mg/kg/day / inhibition in vivo at 20 mg/kg/day: Rattus norvegicus, po, 84 h, read-out: % decrease of serum triglyceride; for inhibition in vivo at 10 mg/kg/day: 10 mg/kg/day oral
Experimental: (§1) 1. Blood lipid lowering activities in 8 week-old male rats having normal serum lipid content.
(§2) The values shown in Table 1 indicate the concentration changes of serum cholesterol and serum triglycride after the treatment with the shown various doses/day for 3.5 days. The mentioned compounds were orally administered to rat's groups consisting of 10 animals through a stomach tube twice a day. Blood was usually withdrawn 4 hours after the last administration. Serum cholesterol concentration was determined by the method of Levine and Zak, and triglyceride by the method of Kassler and Laderer by means of autoanalyzer. In all examples shown in Table 1, % decrease of treated groups are then to the non-treated reference group (control group), where the value of control group is represented as 100%.
(§3) The values in Table 5 indicate the concentration changes of serum cholesterol and the triglyceride after the treatment with the shown various doses per day for 3.5 days. These compounds were orally administered to rat groups consisting of 10 animals through a stomach tube twice a day. Blood was usually withdrawn 4 hours after the last administration. Serum cholesterol concentration was determined by the method of Levine and Zak, and serum triglyceride by the method of Kessler and Lederer by means of autoanalyzer. In all examples shown in Table 1, % decrease of the treated groups are to the non-treated control group where the value of control group is represented as 100%. […] The following examples are given to illustrate the representative embodiment of this invention, but this invention is not limited to these examples.

serum cholesterol = test: Blood lipid lowering in 8 week-old male rats having normal serum lipid content: serum cholesterol; assay type: in vivo; conditions: Rattus norvegicus, po, 84 h, 3.5 days, vs non-treated control, read-out: % decrease of serum cholesterol; for inhibition in vivo at 100 mg/kg/day: 100 mg/kg/day oral; for inhibition in vivo at 10 mg/kg/day: 10 mg/kg/day oral; for inhibition in vivo at 20 mg/kg/day: 20 mg/kg/day oral
Experimental: as §1, §2, §3

blood cholesterol = test: Blood cholesterol lowering in thiouracil induced hypercholesterolemia of thiouracil loaded 9 week-old male rats; assay type: in vivo, rat; conditions: 4 days, vs thiouracil loaded control
Experimental: 3. Blood cholesterol lowering activities in the thiouracil induced hypercholesterolemia of thiouracil loaded 9 week-old male rats.
The compounds illustrated in Table 3 were orally administered for 4 days from the 4th day to rats given 0.1% thiouracil solution for 3 days as the pretreatment. Fasting for 18 hours after the last administration, blood was withdrawn. In all examples shown in Table 3, % inhibition of treated groups are to the thiouracil loaded control group, in which the changed value of cholesterol before and after the thiouracil load is represented as 100%.

blood triglyceride = test: Blood triglyceride lowering in carbohydrate (fructose) induced hypertriglyceridemia of fructose loaded 9 week-old male rats; assay type: in vivo, rat; conditions: 3 days, vs fructose loaded control
Experimental: 2. Blood triglyceride lowering activities in the carbohydrate induced hypertriglyceridemia of fructose loaded 9 week-old rats.
Compounds shown in Table 2 were orally administered to the rat groups consisting of 10 animals for 3 days. Drinking of 10% fructose solution continued for 48 hours prior to sacrifice.
Fasting for 18 hours after the last administration, blood was withdrawn. In all examples shown in Table 2, % inhibitions of the treated groups are to the fructose loaded control group. The changed value of triglyoride content before and after the fructose load in the control group is represented as 100%.

## CCN(CC)C(=O)CN(CC(O)COc1ccc(Cl)cc1)c1ccccc1 (stereo not shown) [Compound 35]
Serum triglyceride; Table 1, 100 mg/kg/day oral
  inhibition in vivo at 100 mg/kg/day: 52.7%
Serum cholesterol; Table 1
  inhibition in vivo at 100 mg/kg/day: 19.8%

## COC(=O)CN(CC(O)COc1ccc(Cl)cc1)c1ccccc1 (stereo not shown) [Compound 4]
Serum triglyceride; Table 1
  inhibition in vivo at 10 mg/kg/day: 36.5%
Serum triglyceride; Table 1, 20 mg/kg/day oral
  inhibition in vivo at 20 mg/kg/day: 54.4%
Serum triglyceride; Table 1, 100 mg/kg/day oral
  inhibition in vivo at 100 mg/kg/day: 59%
Serum cholesterol; Table 1
  inhibition in vivo at 10 mg/kg/day: 22.9%
  inhibition in vivo at 20 mg/kg/day: 23.4%
  inhibition in vivo at 100 mg/kg/day: 39.1%
Blood cholesterol; 10 mg/kg/day oral
  inhibition ratio (hypocholesterolemic effect): 51.9%
Blood cholesterol; 30 mg/kg/day oral
  inhibition ratio (hypocholesterolemic effect): 57.9%
Blood cholesterol; 100 mg/kg/day oral
  inhibition ratio (hypocholesterolemic effect): 85.5%
Blood triglyceride; 10 mg/kg/day oral
  inhibition ratio (hypotriglyceridemic effect): 46.5%
Blood triglyceride; 30 mg/kg/day oral
  inhibition ratio (hypotriglyceridemic effect): 69.9%
Blood triglyceride; 100 mg/kg/day oral
  inhibition ratio (hypotriglyceridemic effect): 93.0%

## NC(=O)CN(CC(O)COc1ccc(Cl)cc1)c1ccccc1 (stereo not shown) [Compound 32]
Serum triglyceride; Table 1, 100 mg/kg/day oral
  inhibition in vivo at 100 mg/kg/day: 56.6%
Serum cholesterol; Table 1
  inhibition in vivo at 100 mg/kg/day: 29.6%

## N[C@@H](Cc1cc(I)c(Oc2cc(I)c(O)c(I)c2)c(I)c1)C(=O)O [L-thyroxine, reference compound]
Blood cholesterol; 3 mg/kg/day oral
  inhibition ratio (hypocholesterolemic effect): 54.8%

## CCCOC(=O)CN(CC(O)COc1ccc(Cl)cc1)c1ccccc1 (stereo not shown) [Compound 6]
Serum triglyceride; Table 1, 20 mg/kg/day oral
  inhibition in vivo at 20 mg/kg/day: 49.6%
Serum triglyceride; Table 1, 100 mg/kg/day oral
  inhibition in vivo at 100 mg/kg/day: 72.4%
Serum cholesterol; Table 1
  inhibition in vivo at 20 mg/kg/day: 34.7%
  inhibition in vivo at 100 mg/kg/day: 41.2%
Blood cholesterol; 10 mg/kg/day oral
  inhibition ratio (hypocholesterolemic effect): 58.4%
Blood cholesterol; 30 mg/kg/day oral
  inhibition ratio (hypocholesterolemic effect): 70.1%
Blood cholesterol; 100 mg/kg/day oral
  inhibition ratio (hypocholesterolemic effect): 94.9%
Blood triglyceride; 10 mg/kg/day oral
  inhibition ratio (hypotriglyceridemic effect): 55.9%
Blood triglyceride; 30 mg/kg/day oral
  inhibition ratio (hypotriglyceridemic effect): 67.6%
Blood triglyceride; 100 mg/kg/day oral
  inhibition ratio (hypotriglyceridemic effect): 85.7%

## O=C(CN(CC(O)COc1ccc(Cl)cc1)c1ccccc1)NCc1ccccc1 (stereo not shown) [Compound 41]
Serum triglyceride; Table 1, 100 mg/kg/day oral
  inhibition in vivo at 100 mg/kg/day: 53.2%
Serum cholesterol; Table 1
  inhibition in vivo at 100 mg/kg/day: 12.3%

## CCOC(=O)CN(CC(COc1ccc(Cl)cc1)OC(=O)c1cccnc1)c1ccccc1 (stereo not shown) [Compound 57]
Serum triglyceride; Table 5, 20 mg/kg/day oral
  inhibition in vivo at 20 mg/kg/day: 54.5%
Serum triglyceride; Table 5, 100 mg/kg/day oral
  inhibition in vivo at 100 mg/kg/day: 59.3%
Serum cholesterol; Table 5
  inhibition in vivo at 20 mg/kg/day: 12.4%
  inhibition in vivo at 100 mg/kg/day: 14.9%

## COC(=O)CN(CC(O)COc1ccc(C(C)(C)C)cc1)c1ccccc1 (stereo not shown) [Compound 18]
Serum triglyceride; Table 1, 20 mg/kg/day oral
  inhibition in vivo at 20 mg/kg/day: 54.5%
Serum triglyceride; Table 1, 100 mg/kg/day oral
  inhibition in vivo at 100 mg/kg/day: 59.3%
Serum cholesterol; Table 1
  inhibition in vivo at 20 mg/kg/day: 12.4%
  inhibition in vivo at 100 mg/kg/day: 14.9%

## CCCCOC(=O)CN(CC(O)COc1ccc(Cl)cc1)c1ccccc1 (stereo not shown) [Compound 10]
Blood cholesterol; 10 mg/kg/day oral
  inhibition ratio (hypocholesterolemic effect): 52.6%
Blood cholesterol; 30 mg/kg/day oral
  inhibition ratio (hypocholesterolemic effect): 87.4%
Blood cholesterol; 100 mg/kg/day oral
  inhibition ratio (hypocholesterolemic effect): 94.9%
Blood triglyceride; 10 mg/kg/day oral
  inhibition ratio (hypotriglyceridemic effect): 48.5%
Blood triglyceride; 30 mg/kg/day oral
  inhibition ratio (hypotriglyceridemic effect): 61.5%
Blood triglyceride; 100 mg/kg/day oral
  inhibition ratio (hypotriglyceridemic effect): 63.3%

## COC(=O)CN(CC(COc1ccc(Cl)cc1)OC(C)=O)c1ccccc1 (stereo not shown) [Compound 50, 2-acetoxy-1-(p-chlorophenoxy)-3-(N-carbomethoxymethyl-N-phenylamino) propane]
Serum triglyceride; Table 5, 20 mg/kg/day oral
  inhibition in vivo at 20 mg/kg/day: 65.4%
Serum triglyceride; Table 5, 100 mg/kg/day oral
  inhibition in vivo at 100 mg/kg/day: 66%
Serum cholesterol; Table 5
  inhibition in vivo at 20 mg/kg/day: 21.5%
  inhibition in vivo at 100 mg/kg/day: 30.3%

## O=C(O)CN(CC(O)COc1ccc(Cl)cc1)c1ccccc1 (stereo not shown) [Compound 2]
Serum triglyceride; Table 1
  inhibition in vivo at 10 mg/kg/day: 53.6%
Serum triglyceride; Table 1, 20 mg/kg/day oral, 20 mg/kg/day
  % decrease of serum triglyceride: 73.2%
Serum triglyceride; Table 1, 100 mg/kg/day oral, 100 mg/kg/day
  % decrease of serum triglyceride: 72.0%
Serum cholesterol; Table 1
  inhibition in vivo at 10 mg/kg/day: 15.5%
  inhibition in vivo at 20 mg/kg/day: 28.8%
  inhibition in vivo at 100 mg/kg/day: 33.5%

## CCOC(=O)CN(CC(O)COc1ccc(Cl)cc1)c1ccccc1 (stereo not shown) [Compound 5]
Blood cholesterol; 10 mg/kg/day oral
  inhibition ratio (hypocholesterolemic effect): 49.9%
Blood cholesterol; 30 mg/kg/day oral
  inhibition ratio (hypocholesterolemic effect): 69.2%
Blood cholesterol; 100 mg/kg/day oral
  inhibition ratio (hypocholesterolemic effect): 100.7%

## CCOC(=O)C(C)(C)Oc1ccc(Cl)cc1 [clofibrate, reference compound]
Serum triglyceride; Table 1
  inhibition in vivo at 10 mg/kg/day: 6.2%
Serum triglyceride; Table 1, 20 mg/kg/day oral
  inhibition in vivo at 20 mg/kg/day: 36.3%
Serum triglyceride; Table 1, 100 mg/kg/day oral
  inhibition in vivo at 100 mg/kg/day: 51.7%
Serum triglyceride; Table 5, 20 mg/kg/day oral
  inhibition in vivo at 20 mg/kg/day: 36.3%
Serum triglyceride; Table 5, 100 mg/kg/day oral
  inhibition in vivo at 100 mg/kg/day: 51.7%
Serum cholesterol; Table 1
  inhibition in vivo at 10 mg/kg/day: 5.8%
  inhibition in vivo at 20 mg/kg/day: 12.6%
  inhibition in vivo at 100 mg/kg/day: 37%
Serum cholesterol; Table 5
  inhibition in vivo at 20 mg/kg/day: 12.6%
  inhibition in vivo at 100 mg/kg/day: 37%
Blood triglyceride; 10 mg/kg/day oral
  inhibition ratio (hypotriglyceridemic effect): -16.6%
Blood triglyceride; 30 mg/kg/day oral
  inhibition ratio (hypotriglyceridemic effect): -2.3%
Blood triglyceride; 100 mg/kg/day oral
  inhibition ratio (hypotriglyceridemic effect): 23.2%

## COC(=O)CN(CC(O)COc1ccccc1Cl)c1ccccc1 (stereo not shown) [Compound 11]
Serum triglyceride; Table 1, 20 mg/kg/day oral
  inhibition in vivo at 20 mg/kg/day: 65.4%
Serum triglyceride; Table 1, 100 mg/kg/day oral
  inhibition in vivo at 100 mg/kg/day: 66%
Serum cholesterol; Table 1
  inhibition in vivo at 20 mg/kg/day: 21.5%
  inhibition in vivo at 100 mg/kg/day: 30.3%
